Results published in article PMC9606955, “In Vitro Activity of Essential Oils Distilled from Colombian Plants against Candida auris and Other Candida Species with Different Antifungal Susceptibility Profiles” (Molecules, 2022).
Values after ≈ are worked out from the molar mass of the structure shown. Each block holds one molecule with its values, some of them ahead of it.

Legend:
Experiment in all cases: MIC, CLSI M27 broth microdilution
[1] = system: C. albicans ATCC 10231; type: cell-based, Candida albicans; settings: antifungal drugs; for MIC: Candida albicans, ATCC10231, geometric mean
Excerpt: (§1) The fungal strains used in this study were C. albicans ATCC 10231, C. albicans ATCC 64550, C. parapsilosis ATCC 22019, C. tropicalis ATCC 750, C. tropicalis ATCC 200956 (resistant to azoles and AMB), C. glabrata LMDM 34 (resistant to echinocandins), C. metapsilosis MUM 15.12, C. orthopsilosis MUM 17.13, C. lusitaniae MUM 17.08, C. krusei ATCC 6258 (Issatchenkia orientalis ATCC 6258), and C. auris CDC B11903. Additionally, nine clinical isolates were included: C. parapsilosis Synlab 406 (FLC-resistant) and eight C. auris isolates identified by MALDI-TOF MS (Bruker Daltonics, Bremen, Germany) according to Zhao et al.. These yeasts were cultured on Sabouraud Dextrose Agar (SDA; Sigma-Aldrich, St. Louis, MO, USA) for 24 h at 35 °C.
(§2) Antifungal susceptibility testing was performed according to Clinical and Laboratory Standards Institute M27, 4th Edition (CLSI standard M27, 4th Edition). Some modifications were applied for evaluation of the antifungal activity of EOs and terpenes. Initially, a screening was carried out to determine the antifungal activity of the EOs and of commercial terpenes. Stock concentrations of EOs and terpenes were prepared at 512 µg/mL and an inoculum of 2.5 × 10^3 CFU/mL of each yeast was prepared in RPMI 1640-MOPS (Sigma- Aldrich St. Louis, MO, USA). Thereafter, 100 µL of each stock solution of EOs or terpenes was dispensed in 96-well microdilution plates (Corning®, Costar®, NY, USA) and 100 µL of each yeast inoculum was added. […] Microdilution plates were incubated at 35 °C and, after 24 h, the presence or absence of growth was visually checked using a manual mirror viewer and then compared with the amount of growth in the control (no EO or terpene). Compounds able to inhibit yeast growth were tested to determine the minimal inhibitory concentration (MIC) as follows: 100 µL of 10 two-fold dilutions of the EOs or commercial terpenes was dispensed in 96-well microplates and the yeast inoculum was added. Final concentrations of the EOs or terpenes ranged from 0.5 µg/mL to 256 µg/mL. Microdilution plates were incubated at 35 °C for 24 h. MICs were visually determined at the lowest concentration that produced visual inhibition compared to the growth control. The assays were performed at least three times in duplicate on different days. The results were expressed as geometric means (GM) and ranges. As an antifungal susceptibility testing control, the activity of ITC and AMB against the reference strains C. krusei ATCC 6258 and C. parapsilosis ATCC 22019 was evaluated in all experiments following the CLSI standard M27, 4th Edition. It was mandatory that the MIC values remained in the accepted range.

[2] = system: C. albicans ATCC 64550; type: cell-based, Candida albicans; settings: antifungal drugs; for MIC: Candida albicans, ATCC64550, geometric mean
Excerpt: as §1, §2

[3] = system: C. krusei ATCC 6258; type: cell-based, Candida krusei; settings: C. krusei ATCC 6258, antifungal drugs; for MIC: Pichia kudriavzevii, ATCC6258, geometric mean, read-out: MIC GM
Excerpt: as §1, §2

[4] = system: C. tropicalis ATCC 200956; type: cell-based, Candida tropicalis; settings: C. tropicalis ATCC 200956, antifungal drugs; for MIC: Candida tropicalis, ATCC200956, geometric mean, read-out: MIC GM
Excerpt: as §1, §2

[5] = system: C. tropicalis ATCC 750; type: cell-based, Candida tropicalis; settings: antifungal drugs; for MIC: Candida tropicalis, ATCC750, geometric mean
Excerpt: as §1, §2

[6] = system: C. glabrata LMDM 34; type: cell-based, Candida glabrata; settings: for MIC: Nakaseomyces glabratus, LMDM34, geometric mean; for MIC / MIC Range: antifungal drugs
Excerpt: as §1, §2

[7] = system: C. metapsilosis MUM 15.12; type: cell-based, Candida metapsilosis; settings: C. metapsilosis MUM 15.12, antifungal drugs; for MIC: Lodderomyces metapsilosis, MUM15.12, geometric mean, read-out: MIC GM
Excerpt: as §1, §2

[8] = system: C. orthopsilosis MUM 17.13; type: cell-based, Candida orthopsilosis; settings: C. orthopsilosis MUM 17.13, antifungal drugs; for MIC: Lodderomyces orthopsilosis, MUM17.13, geometric mean, read-out: MIC GM
Excerpt: as §1, §2

[9] = system: C. lusitaniae MUM 17.08; type: cell-based, Candida lusitaniae; settings: C. lusitaniae MUM 17.08, antifungal drugs; for MIC: Clavispora lusitaniae, MUM17.08, geometric mean, read-out: MIC GM
Excerpt: as §1, §2

[10] = system: C. auris CDC B11903; type: cell-based, Candida auris; settings: C. auris CDCB11903, antifungal drugs; for MIC: Candidozyma auris, geometric mean, read-out: MIC GM
Excerpt: as §1, §2

[11] = system: C. auris Ca 10; type: cell-based, Candida auris; settings: antifungal drugs; for MIC: Candidozyma auris, CA10, geometric mean
Excerpt: as §1, §2

[12] = system: C. auris Ca 17; type: cell-based, Candida auris; settings: C. auris Ca 17, antifungal drugs; for MIC: Candidozyma auris, CA17, geometric mean, read-out: MIC GM
Excerpt: as §1, §2

[13] = system: C. auris Ca 1; type: cell-based, Candida auris; settings: C. auris Ca 1, antifungal drugs; for MIC: Candidozyma auris, CA1, geometric mean, read-out: MIC GM
Excerpt: as §1, §2

[14] = system: C. auris Ca 32; type: cell-based, Candida auris; settings: C. auris Ca 32, antifungal drugs; for MIC: Candidozyma auris, CA32, geometric mean, read-out: MIC GM
Excerpt: as §1, §2

[15] = system: C. auris Ca 41; type: cell-based, Candida auris; settings: C. auris Ca 41, antifungal drugs; for MIC: Candidozyma auris, CA41, geometric mean, read-out: MIC GM
Excerpt: as §1, §2

[16] = system: C. auris Ca 45; type: cell-based, Candida auris; settings: C. auris Ca 45, antifungal drugs; for MIC: Candidozyma auris, CA45, geometric mean, read-out: MIC GM
Excerpt: as §1, §2

[17] = system: C. auris Ca 46; type: cell-based, Candida auris; settings: C. auris Ca 46, antifungal drugs; for MIC: Candidozyma auris, CA46, geometric mean, read-out: MIC GM
Excerpt: as §1, §2

[18] = system: C. auris Ca 9; type: cell-based, Candida auris; settings: C. auris Ca 9, antifungal drugs; for MIC: Candidozyma auris, CA9, geometric mean, read-out: MIC GM
Excerpt: as §1, §2

[19] = system: C. parapsilosis ATCC 22019; type: cell-based, Candida parapsilosis; settings: antifungal drugs; for MIC: Lodderomyces parapsilosis, ATCC22019, geometric mean
Excerpt: as §1, §2

[20] = system: C. parapsilosis Synlab 406; type: cell-based, Candida parapsilosis; settings: C. parapsilosis Synlab 406, antifungal drugs; for MIC: Lodderomyces parapsilosis, SYNLAB406, geometric mean, read-out: MIC GM
Excerpt: as §1, §2

- MIC [1]: 0.06 µg/mL (≈ 0.085 µM)
- MIC Range [1]: 0.03 to 0.125 µg/mL
- MIC [2]: 0.7 µg/mL (≈ 0.992 µM)
- MIC Range [2]: 0.5 to 1 µg/mL
- MIC Range [3]: 0.12 to 0.50 µg/mL
- MIC [3]: 0.28 µg/mL (≈ 0.397 µM)
- MIC Range [4]: >16 µg/mL
- MIC [4]: > 16 µg/mL
- MIC [5]: 0.12 µg/mL (≈ 0.17 µM)
- MIC Range [5]: 0.06 to 0.25 µg/mL
- MIC [6]: 1 µg/mL (≈ 1.42 µM)
- MIC Range [6]: 1 µg/mL (≈ 1.42 µM)
- MIC Range [7]: 0.06 to 0.12 µg/mL
- MIC [7]: 0.09 µg/mL (≈ 0.128 µM)
- MIC Range [8]: 0.12 µg/mL (≈ 0.17 µM)
- MIC [8]: 0.12 µg/mL (≈ 0.17 µM)
- MIC Range [9]: 0.03 to 0.06 µg/mL
- MIC [9]: 0.04 µg/mL (≈ 0.0567 µM)
- MIC Range [10]: 0.06 to 0.12 µg/mL
- MIC [10]: 0.04 µg/mL (≈ 0.0567 µM)
- MIC [11]: 0.09 µg/mL (≈ 0.128 µM)
- MIC Range [11]: 0.06 to 0.12 µg/mL
- MIC Range [12]: 0.12 to 0.5 µg/mL
- MIC [12]: 0.25 µg/mL (≈ 0.354 µM)
- MIC Range [13]: 0.03 to 0.12 µg/mL
- MIC [13]: 0.06 µg/mL (≈ 0.085 µM)
- MIC Range [14]: 0.25 to 0.50 µg/mL
- MIC [14]: 0.35 µg/mL (≈ 0.496 µM)
- MIC Range [15]: 0.03 to 0.12 µg/mL
- MIC [15]: 0.06 µg/mL (≈ 0.085 µM)
- MIC Range [16]: 0.06 to 0.12 µg/mL
- MIC [16]: 0.04 µg/mL (≈ 0.0567 µM)
- MIC Range [17]: 0.06 to 0.12 µg/mL
- MIC [17]: 0.04 µg/mL (≈ 0.0567 µM)
- MIC Range [18]: 0.03 to 0.12 µg/mL
- MIC [18]: 0.06 µg/mL (≈ 0.085 µM)
- MIC [19]: 0.35 µg/mL (≈ 0.496 µM)
- MIC Range [19]: 0.25 to 0.50 µg/mL
- MIC Range [20]: 0.5 to 1 µg/mL
- MIC [20]: 0.7 µg/mL (≈ 0.992 µM)
SMILES: CCC(C)n1ncn(-c2ccc(N3CCN(c4ccc(OCC5COC(Cn6cncn6)(c6ccc(Cl)cc6Cl)O5)cc4)CC3)cc2)c1=O (stereo not drawn) [ITC, itraconazole]

- MIC [1]: 0.18 µg/mL (≈ 0.165 µM)
- MIC Range [1]: 0.12 to 0.25 µg/mL
- MIC [2]: 0.35 µg/mL (≈ 0.32 µM)
- MIC Range [2]: 0.25 to 0.5 µg/mL
- MIC Range [3]: 1 µg/mL (≈ 0.915 µM)
- MIC [3]: 1 µg/mL (≈ 0.915 µM)
- MIC Range [4]: 0.5 µg/mL (≈ 0.457 µM)
- MIC [4]: 0.5 µg/mL (≈ 0.457 µM)
- MIC [5]: 0.35 µg/mL (≈ 0.32 µM)
- MIC Range [5]: 0.25 to 0.5 µg/mL
- MIC [6]: 8 µg/mL (≈ 7.32 µM)
- MIC Range [6]: 8 µg/mL (≈ 7.32 µM)
- MIC Range [7]: 1 µg/mL (≈ 0.915 µM)
- MIC [7]: 1 µg/mL (≈ 0.915 µM)
- MIC Range [8]: 1 µg/mL (≈ 0.915 µM)
- MIC [8]: 1 µg/mL (≈ 0.915 µM)
- MIC Range [9]: 1 µg/mL (≈ 0.915 µM)
- MIC [9]: 1 µg/mL (≈ 0.915 µM)
- MIC Range [10]: 0.5 µg/mL (≈ 0.457 µM)
- MIC [10]: 0.5 µg/mL (≈ 0.457 µM)
- MIC [11]: 0.7 µg/mL (≈ 0.64 µM)
- MIC Range [11]: 0.5 to 1 µg/mL
- MIC Range [12]: 0.5 µg/mL (≈ 0.457 µM)
- MIC [12]: 0.5 µg/mL (≈ 0.457 µM)
- MIC Range [13]: 0.5 µg/mL (≈ 0.457 µM)
- MIC [13]: 0.5 µg/mL (≈ 0.457 µM)
- MIC Range [14]: 0.5 µg/mL (≈ 0.457 µM)
- MIC [14]: 0.5 µg/mL (≈ 0.457 µM)
- MIC Range [15]: 0.5 µg/mL (≈ 0.457 µM)
- MIC [15]: 0.5 µg/mL (≈ 0.457 µM)
- MIC Range [16]: 0.5 µg/mL (≈ 0.457 µM)
- MIC [16]: 0.5 µg/mL (≈ 0.457 µM)
- MIC Range [17]: 0.5 µg/mL (≈ 0.457 µM)
- MIC [17]: 0.5 µg/mL (≈ 0.457 µM)
- MIC Range [18]: 0.5 µg/mL (≈ 0.457 µM)
- MIC [18]: 0.5 µg/mL (≈ 0.457 µM)
- MIC [19]: 1 µg/mL (≈ 0.915 µM)
- MIC Range [19]: 1 µg/mL (≈ 0.915 µM)
- MIC Range [20]: 2 µg/mL (≈ 1.83 µM)
- MIC [20]: 2 µg/mL (≈ 1.83 µM)
SMILES: CC[C@H](C)C[C@H](C)CCCCCCCCC(=O)N[C@H]1C[C@@H](O)[C@@H](NCCN)NC(=O)[C@@H]2[C@@H](O)CCN2C(=O)[C@H]([C@H](O)CCN)NC(=O)[C@H]([C@H](O)[C@@H](O)c2ccc(O)cc2)NC(=O)[C@@H]2C[C@@H](O)CN2C(=O)[C@H]([C@@H](C)O)NC1=O [CSF, caspofungin]
- susceptibility category ([6]; resistance confirmed): resistance
